Our source for the activity coefficient values is the NIST ThermoML archive (doi:10.1021/acs.jced.5b00980).

± gives the expanded uncertainty stated by the source.

The data set in a line: activity coefficient (dimensionless); of the first substance listed, at infinite dilution; xn = mol fraction of the nth substance listed. The note with it: 100 kPa, Liquid, Chromatography, x1 = 0.

In the case of `CCCCCCCCCC` [decane] + CCCC[P+](CC)(CCCC)CCCC.CCOP(=O)([O-])OCC, the activity coefficient by setting is: (328.15 K) 7.01 ± 0.48; (338.15 K) 6.74 ± 0.46; (348.15 K) 6.49 ± 0.44; (358.15 K) 6.26 ± 0.43; (368.15 K) 6.05 ± 0.41.
The like results for `Cc1ccc(C)cc1` [1,4-dimethylbenzene] + CCCC[P+](CC)(CCCC)CCCC.CCOP(=O)([O-])OCC were, in that order, 1.64 ± 0.11, 1.61 ± 0.11, 1.59 ± 0.11, 1.57 ± 0.1 and 1.55 ± 0.1.
Regarding `Cc1ccccc1C` [1,2-dimethylbenzene] + CCCC[P+](CC)(CCCC)CCCC.CCOP(=O)([O-])OCC, the activity coefficient by setting is: (328.15 K) 1.55 ± 0.1; (338.15 K) 1.52 ± 0.1; (348.15 K) 1.5 ± 0.1; (358.15 K) 1.47 ± 0.1; (368.15 K) 1.45 ± 0.1.
For `C=CCCCCC` [1-heptene] + CCCC[P+](CC)(CCCC)CCCC.CCOP(=O)([O-])OCC, the activity coefficient reads like this: (328.15 K) 3.06 ± 0.21; (338.15 K) 3.01 ± 0.2; (348.15 K) 2.97 ± 0.2; (358.15 K) 2.93 ± 0.2; (368.15 K) 2.89 ± 0.2.
The corresponding values for `CCCCC` [pentane] + CCCC[P+](CC)(CCCC)CCCC.CCOP(=O)([O-])OCC are 2.91 ± 0.2, 2.85 ± 0.19, 2.8 ± 0.19, 2.75 ± 0.19 and 2.7 ± 0.18.
Turning to `C#CCCCCCC` [1-octyne] + CCCC[P+](CC)(CCCC)CCCC.CCOP(=O)([O-])OCC, the activity coefficient amounted to 1.17 ± 0.07 (328.15 K); 1.22 ± 0.08 (338.15 K); 1.28 ± 0.08 (348.15 K); 1.33 ± 0.09 (358.15 K); 1.38 ± 0.09 (368.15 K).
For the molecule `Cc1cccc(C)c1` [1,3-dimethylbenzene] + CCCC[P+](CC)(CCCC)CCCC.CCOP(=O)([O-])OCC, the activity coefficient (328.15 K) turned out to be 1.7 ± 0.11; the activity coefficient (338.15 K) came out at 1.67 ± 0.11; the activity coefficient (348.15 K) is 1.64 ± 0.11; the activity coefficient (358.15 K) worked out at 1.61 ± 0.11; the activity coefficient (368.15 K) stood at 1.59 ± 0.11.
With `CCCC(C)=O` [pentan-2-one] + CCCC[P+](CC)(CCCC)CCCC.CCOP(=O)([O-])OCC, the activity coefficient runs as follows: (328.15 K) 1.03 ± 0.06; (338.15 K) 1.03 ± 0.06; (348.15 K) 1.02 ± 0.06; (358.15 K) 1.02 ± 0.06; (368.15 K) 1.01 ± 0.06.
Turning to `C=CCCCCCCCC` [1-decene] + CCCC[P+](CC)(CCCC)CCCC.CCOP(=O)([O-])OCC, the activity coefficient by setting is: (328.15 K) 5.2 ± 0.35; (338.15 K) 5.06 ± 0.34; (348.15 K) 4.93 ± 0.34; (358.15 K) 4.81 ± 0.33; (368.15 K) 4.69 ± 0.32.
With `CCOC(C)(C)C` [2-ethoxy-2-methylpropane] + CCCC[P+](CC)(CCCC)CCCC.CCOP(=O)([O-])OCC, the activity coefficient (328.15 K) came to 2.66 ± 0.18; the activity coefficient (338.15 K) came to 2.6 ± 0.18; the activity coefficient (348.15 K) stood at 2.56 ± 0.17; the activity coefficient (358.15 K) worked out at 2.51 ± 0.17; the activity coefficient (368.15 K) was determined as 2.47 ± 0.17.
Turning to `CCCOCCC` [dipropyl ether] + CCCC[P+](CC)(CCCC)CCCC.CCOP(=O)([O-])OCC, the activity coefficient runs as follows: (328.15 K) 2.59 ± 0.18; (338.15 K) 2.55 ± 0.17; (348.15 K) 2.51 ± 0.17; (358.15 K) 2.47 ± 0.17; (368.15 K) 2.43 ± 0.17.
`COC(C)(C)C` [2-methoxy-2-methylpropane] + CCCC[P+](CC)(CCCC)CCCC.CCOP(=O)([O-])OCC: the activity coefficient (328.15 K) worked out at 1.89 ± 0.13; the activity coefficient (338.15 K) was 1.86 ± 0.13; the activity coefficient (348.15 K) is 1.84 ± 0.12; the activity coefficient (358.15 K) was 1.82 ± 0.12; the activity coefficient (368.15 K) was found to be 1.8 ± 0.12.
The like results for `C#CCCCC` [1-hexyne] + CCCC[P+](CC)(CCCC)CCCC.CCOP(=O)([O-])OCC were, in that order, 0.849 ± 0.054, 0.893 ± 0.057, 0.936 ± 0.059, 0.979 ± 0.061 and 1.02 ± 0.06.
As for `c1ccccc1` [benzene] + CCCC[P+](CC)(CCCC)CCCC.CCOP(=O)([O-])OCC, the activity coefficient runs as follows: (328.15 K) 0.871 ± 0.056; (338.15 K) 0.863 ± 0.055; (348.15 K) 0.855 ± 0.055; (358.15 K) 0.847 ± 0.054; (368.15 K) 0.84 ± 0.054.
As for `c1ccsc1` [thiophene] + CCCC[P+](CC)(CCCC)CCCC.CCOP(=O)([O-])OCC, the activity coefficient (328.15 K) was determined as 0.58 ± 0.041; the activity coefficient (338.15 K) came out at 0.587 ± 0.042; the activity coefficient (348.15 K) came to 0.595 ± 0.042; the activity coefficient (358.15 K) is 0.601 ± 0.042; the activity coefficient (368.15 K) stood at 0.607 ± 0.042.
Consider `C1COCCO1` [1,4-dioxane] + CCCC[P+](CC)(CCCC)CCCC.CCOP(=O)([O-])OCC, for which the activity coefficient (328.15 K) is 1.08 ± 0.07; the activity coefficient (338.15 K) was found to be 1.06 ± 0.07; the activity coefficient (348.15 K) was found to be 1.05 ± 0.07; the activity coefficient (358.15 K) was found to be 1.03 ± 0.06; the activity coefficient (368.15 K) is 1.02 ± 0.06.
For the molecule `C1CCOC1` [tetrahydrofuran] + CCCC[P+](CC)(CCCC)CCCC.CCOP(=O)([O-])OCC, the activity coefficient reads like this: (328.15 K) 0.938 ± 0.059; (338.15 K) 0.926 ± 0.059; (348.15 K) 0.919 ± 0.058; (358.15 K) 0.907 ± 0.058; (368.15 K) 0.899 ± 0.057.
In the case of `CCO` [ethanol] + CCCC[P+](CC)(CCCC)CCCC.CCOP(=O)([O-])OCC, the activity coefficient was determined as 0.035 (338.15 K), 0.038 (348.15 K), 0.042 (358.15 K) and 0.045 (368.15 K).
On to `Cc1ccccc1` [toluene] + CCCC[P+](CC)(CCCC)CCCC.CCOP(=O)([O-])OCC, for which the activity coefficient was determined as 1.2 ± 0.08 (328.15 K); 1.19 ± 0.08 (338.15 K); 1.18 ± 0.08 (348.15 K); 1.16 ± 0.07 (358.15 K); 1.15 ± 0.07 (368.15 K).
As for `c1ccncc1` [pyridine] + CCCC[P+](CC)(CCCC)CCCC.CCOP(=O)([O-])OCC, the activity coefficient by setting is: (328.15 K) 0.544 ± 0.04; (338.15 K) 0.545 ± 0.04; (348.15 K) 0.548 ± 0.04; (358.15 K) 0.549 ± 0.04; (368.15 K) 0.55 ± 0.04.
The like results for `CCCCCCCCC` [nonane] + CCCC[P+](CC)(CCCC)CCCC.CCOP(=O)([O-])OCC were, in that order, 5.79 ± 0.39, 5.6 ± 0.38, 5.43 ± 0.37, 5.27 ± 0.36 and 5.13 ± 0.35.
`CCC(C)CC` [3-methylpentane] + CCCC[P+](CC)(CCCC)CCCC.CCOP(=O)([O-])OCC: the activity coefficient stood at 3.17 ± 0.22 (328.15 K); 3.12 ± 0.21 (338.15 K); 3.07 ± 0.21 (348.15 K); 3.02 ± 0.21 (358.15 K); 2.98 ± 0.2 (368.15 K).
The corresponding values for `CCC(C)(C)OC` [2-methoxy-2-methylbutane] + CCCC[P+](CC)(CCCC)CCCC.CCOP(=O)([O-])OCC are 2.09 ± 0.14, 2.07 ± 0.14, 2.05 ± 0.14, 2.02 ± 0.14 and 2.01 ± 0.14.
For the molecule `O` [water] + CCCC[P+](CC)(CCCC)CCCC.CCOP(=O)([O-])OCC, the activity coefficient by setting is: (328.15 K) 0.101 ± 0.03; (338.15 K) 0.105 ± 0.03; (348.15 K) 0.109 ± 0.03; (358.15 K) 0.112 ± 0.03; (368.15 K) 0.116 ± 0.03.
`CCCCCCC` [heptane] + CCCC[P+](CC)(CCCC)CCCC.CCOP(=O)([O-])OCC: the activity coefficient is 4.08 ± 0.28 (328.15 K); 3.97 ± 0.27 (338.15 K); 3.87 ± 0.26 (348.15 K); 3.78 ± 0.26 (358.15 K); 3.7 ± 0.25 (368.15 K).
`CCC(=O)CC` [pentan-3-one] + CCCC[P+](CC)(CCCC)CCCC.CCOP(=O)([O-])OCC: the activity coefficient stood at 1.02 ± 0.06 (328.15 K); 1.02 ± 0.06 (338.15 K); 1.02 ± 0.06 (348.15 K); 1.02 ± 0.06 (358.15 K); 1.02 ± 0.06 (368.15 K).
In the case of `CCOCC` [diethyl ether] + CCCC[P+](CC)(CCCC)CCCC.CCOP(=O)([O-])OCC, the activity coefficient is, setting by setting: (328.15 K) 1.79 ± 0.12; (338.15 K) 1.77 ± 0.12; (348.15 K) 1.75 ± 0.12; (358.15 K) 1.73 ± 0.12; (368.15 K) 1.71 ± 0.11.
In the case of `CCc1ccccc1` [ethylbenzene] + CCCC[P+](CC)(CCCC)CCCC.CCOP(=O)([O-])OCC, the activity coefficient was determined as 1.55 ± 0.1 (328.15 K); 1.52 ± 0.1 (338.15 K); 1.49 ± 0.1 (348.15 K); 1.46 ± 0.1 (358.15 K); 1.44 ± 0.09 (368.15 K).
